Results as given in patent US20240415819A1, “MACROCYCLIC COMPOUNDS AS PROTEASOME SUBUNIT BETA TYPE-5 INHIBITORS” (Lead Discovery Center GmbH, priority 2021, published 2024).
Like-named read-outs stand apart in the source and are kept apart here.

Key:
[1] = target: T1, β5 subunit of the human constitutive proteasome (CPS) (Homo sapiens, UniProt P28074); experiment: β5 inhibition assay, human constitutive proteasome (Suc-LLVY-AMC); type: biochemical; details: IC50 class, Suc-LLVY-AMC substrate
T1 construct: purchased Boston Biochem E-360
Protocol: The enzymatic activity of the β5 subunit of the human constitutive proteasome (CPS) is analyzed. In another assay, which differs from the assay of the human constitutive proteasome only in using the human immunoproteasome (IPS) the enzymatic activity of the β5 subunit of the human immunoproteasome (IPS) is analyzed. […] Inhibition is indicated as IC50 [nM] (“-”=not measured).

HT-29 cells = experiment: CellTiter-Glo luminescent cell viability assay with HT-29 cells (72h incubation); type: cell-based, human; details: Homo sapiens, HT-29, HT29 cells, read-out: CTG HT29
Method in brief: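 400 cells per well in DMEM/10% FCS were dosed after 24 h and kept 72 h at 37 °C, 5% CO2. ATP-based luminescence (CellTiter-Glo) normalized to DMSO and 10 μM staurosporine controls; IC50 by dose-response fit.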

[2] = system: A549 (human lung carcinoma cell line); experiment: Glo assay of A549 cells (Table 3; ProteasomeGlo plating scheme); type: cell-based; details: Homo sapiens
Method in brief: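 Cells plated in 384 wells; compound, DMSO, staurosporine transferred by ECHO; 105 min, 37° C., 5% CO2; Proteasome-Glo (Suc-LLVY-Glo) reagent added; dark 10-15 min; luminescence; IC50 nM.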

[3] = A549 cells, read-out: PGLo A549

Row | IC50 [1] [nM] | IC50 (HT-29 cells) [nM] | IC50 [2, 3] [nM] | Structure (SMILES) | IC50 ([2]; A549, read-out: PGLo A549 [nM]) [nM]
1 | < 100 | < 100 | < 100 | Cc1ccc2cc1CNC(=O)[C@H](CCc1ccccc1)NC(=O)[C@@H](NC(=O)c1ccccc1)CC(=O)N1CCCC(CCO2)C1 (stereo partly drawn) [Compound 26, N-((9S,12S)-5^4-methyl-8,11,14-trioxo-9-phenethyl-4-oxa-7,10-diaza-1(3,1)-piperidina-5(1,3)-benzenacyclotetradecaphane-12-yl)benzamide] | 
2 | < 100 | < 100 | < 100 | Cc1ccc2cc1CNC(=O)[C@H](CCc1ccccc1)NC(=O)[C@@H](NC(=O)c1ccncc1)CC(=O)N1CCCC(CCO2)C1 (stereo partly drawn) [Compound 42, N-((9S,12S)-5^4-methyl-8,11,14-trioxo-9-phenethyl-4-oxa-7,10-diaza-1(3,1)-piperidina-5(1,3)-benzenacyclotetradecaphane-12-yl)isonicotinamide] | 
3 | < 100 | < 100 | < 100 | COCCOCCOCCOCCOCCC(=O)N[C@H]1CC(=O)N2CCCC(CCOc3ccc(C)c(c3)CNC(=O)[C@H](CCc3ccccc3)NC1=O)C2 (stereo partly drawn) [Compound 219, N-((9S,12S)-5^4-methyl-8,11,14-trioxo-9-phenethyl-4-oxa-7,10-diaza-1(3,1)-piperidina-5(1,3)-benzenacyclotetradecaphane-12-yl)-2,5,8,11,14-pentaoxaheptadecan-17-amide] | 
4 | < 100 | < 100 | 100 to 500 | Cc1ccc2cc1CNC(=O)[C@H](CCc1ccccc1)NC(=O)[C@@H](NS(=O)(=O)Cc1ccccc1)CC(=O)N1CCCC(CCO2)C1 (stereo partly drawn) [Compound 216, N-((9S,12S)-5^4-methyl-8,11,14-trioxo-9-phenethyl-4-oxa-7,10-diaza-1(3,1)-piperidina-5(1,3)-benzenacyclotetradecaphane-12-yl)-1-phenylmethanesulfonamide] | 
5 | 1000 to 5000 | 100 to 500 | > 5000 | Cc1ccc2cc1CNC(=O)[C@@H](CCc1ccccc1)NC(=O)[C@H](NC(=O)OCc1ccccc1)CC(=O)N1CCC[C@H](CCO2)C1 [Compound 290, benzyl ((13R,9R,12R)-5^4-methyl-8,11,14-trioxo-9-phenethyl-4-oxa-7,10-diaza-1(3,1)-piperidina-5(1,3)-benzenacyclotetradecaphane-12-yl)carbamate] | 
6 | 1000 to 5000 | 100 to 500 | 1000 to 5000 | CC(=O)N[C@H]1CCCC(=O)N2CCC2(C)COc2ccc(C)c(c2)CNC(=O)[C@H](CCc2ccccc2)NC1=O (stereo partly drawn) [Compound 281, N-((8S,11S)-1^2,4^4-dimethyl-7,10,15-trioxo-8-phenethyl-3-oxa-6,9-diaza-1(2,1)-azetidina-4(1,3)-benzenacyclopentadecaphane-11-yl)acetamide] | 
7 | 1000 to 5000 | 100 to 500 | > 5000 | CC(=O)N[C@H]1CCC(=O)N2CCCC(C2)Oc2ccc(C)c(c2)CNC(=O)[C@H](CCc2ccccc2)NC1=O (stereo partly drawn) [Compound 148, N-((7S,10S)-3^4-methyl-6,9,13-trioxo-7-phenethyl-2-oxa-5,8-diaza-1(3,1)-piperidina-3(1,3)-benzenacyclotridecaphane-10-yl)acetamide] | 
8 | 100 to 500 | 100 to 500 | 500 to 1000 | CC(=O)N[C@H]1CC(=O)N2CCOC(CCOc3ccc(C)c(c3)CNC(=O)[C@H](CCc3ccccc3)NC1=O)C2 (stereo partly drawn) [Compound 258, N-((9S,12S)-5^4-methyl-8,11,14-trioxo-9-phenethyl-4-oxa-7,10-diaza-1(2,4)-morpholina-5(1,3)-benzenacyclotetradecaphane-12-yl)acetamide] | 
9 | > 5000 | 100 to 500 | > 5000 | CC(=O)N[C@H]1CCC(=O)N(C)CCCCOc2ccc(C)c(c2)CNC(=O)[C@H](CCc2ccccc2)NC1=O [Compound 282, N-((11S,14S)-1^4,7-dimethyl-8,12,15-trioxo-1^4-phenethyl-2-oxa-7,13,16-triaza-1(1,3)-benzenacycloheptadecaphane-11-yl)acetamide] | 
10 | < 100 | < 100 | 100 to 500 | Cc1ccc2cc1CNC(=O)[C@H](CCc1ccccc1)NC(=O)[C@@H](NC(=O)c1n[nH]c3ccccc13)CC(=O)N1CCCC(CCO2)C1 (stereo partly drawn) [Compound 60, N-((9S,12S)-5^4-methyl-8,11,14-trioxo-9-phenethyl-4-oxa-7,10-diaza-1(3,1)-piperidina-5(1,3)-benzenacyclotetradecaphane-12-yl)-1H-indazole-3-carboxamide] | 
11 | < 100 | < 100 | < 100 | COc1ccccc1CC(=O)N[C@H]1CC(=O)N2CCCC(CCOc3ccc(C)c(c3)CNC(=O)[C@H](CCc3ccccc3)NC1=O)C2 (stereo partly drawn) [Compound 84, 2-(2-methoxyphenyl)-N-((9S,12S)-5^4-methyl-8,11,14-trioxo-9-phenethyl-4-oxa-7,10-diaza-1(3,1)-piperidina-5(1,3)-benzenacyclotetradecaphane-12-yl)acetamide] | 
12 | < 100 | 500 to 1000 | < 100 | CC(=O)N[C@H]1CC(=O)N2CCCC(CCOc3ccc(C)c(c3)CNC(=O)C(c3cnn(CCCS(=O)(=O)O)c3)NC1=O)C2 (stereo partly drawn) [Compound 571, 3-(4-((12S)-12-acetamido-5^4-methyl-8,11,14-trioxo-4-oxa-7,10-diaza-1(3,1)-piperidina-5(1,3)-benzenacyclotetradecaphane-9-yl)-1H-pyrazol-1-yl)propane-1-sulfonic acid] | 
13 | < 100 | < 100 | 100 to 500 | Cc1ccc2cc1CNC(=O)[C@H](CCc1ccccc1)NC(=O)[C@@H](NC(=O)C1(N)CCOC1)CC(=O)N1CCCC(CCO2)C1 (stereo partly drawn) [Compound 159, 3-amino-N-((9S,12S)-5^4-methyl-8,11,14-trioxo-9-phenethyl-4-oxa-7,10-diaza-1(3,1)-piperidina-5(1,3)-benzenacyclotetradecaphane-12-yl)tetrahydrofuran-3-carboxamide] | 
14 | < 100 | 100 to 500 | < 100 | Cc1ccc2cc1CNC(=O)[C@H](CCc1ccccc1)NC(=O)[C@@H](NC(=O)C1(C)CCNCC1)CC(=O)N1CCCC(CCO2)C1 (stereo partly drawn) [Compound 136, 4-methyl-N-((9S,12S)-5^4-methyl-8,11,14-trioxo-9-phenethyl-4-oxa-7,10-diaza-1(3,1)-piperidina-5(1,3)-benzenacyclotetradecaphane-12-yl)piperidine-4-carboxamide] | 
15 | < 100 | 500 to 1000 | 500 to 1000 | Cc1ccc2cc1CNC(=O)[C@H](CCc1ccccc1)NC(=O)CCC(=O)N1CCCC(CCO2)C1 (stereo partly drawn) [Compound 13, (9S)-5^4-methyl-9-phenethyl-4-oxa-7,10-diaza-1(3,1)-piperidina-5(1,3)-benzenacyclotetradecaphane-8,11,14-trione] | 

Row | Structure (SMILES) | IC50 [1] [nM] | IC50 (HT-29 cells) [nM] | IC50 [2, 3] [nM] | IC50 ([2]; A549, read-out: PGLo A549 [nM]) [nM]
16 | CCOC(=O)N[C@H]1CC(=O)N2CCCC(CCOc3ccc(C)c(c3)CNC(=O)[C@H](CCc3ccccc3)NC1=O)C2 (stereo partly drawn) [Compound 39, ethyl ((9S,12S)-5^4-methyl-8,11,14-trioxo-9-phenethyl-4-oxa-7,10-diaza-1(3,1)-piperidina-5(1,3)-benzenacyclotetradecaphane-12-yl)carbamate] | < 100 | < 100 |  | < 100
